Here are results for 29 compounds from ChEMBL document CHEMBL4196070, “Development of Piperazinediones as dual inhibitor for treatment of Alzheimer's disease” (Eur J Med Chem, 2018).

Structures are written as SMILES.

Series [1] addresses T1, Acetylcholinesterase (Electrophorus electricus, UniProt O42275). The experiment in a line: Inhibition of electric eel AChE using acetylthiocholine iodide as substrate preincubated for 30 mins followed by substrate addition and measured for 20 mins at 1 min interval by Ellman's method.
In a further series the target is Cholinesterase (Equus caballus, UniProt P81908). Kind of series: Inhibition of equine serum BuChE using butyrylthiocholine iodide as substrate preincubated for 30 mins followed by substrate addition and measured for 20 mins at 1 min interval by Ellman's method.
Sequence of Cholinesterase (P81908 whole entry): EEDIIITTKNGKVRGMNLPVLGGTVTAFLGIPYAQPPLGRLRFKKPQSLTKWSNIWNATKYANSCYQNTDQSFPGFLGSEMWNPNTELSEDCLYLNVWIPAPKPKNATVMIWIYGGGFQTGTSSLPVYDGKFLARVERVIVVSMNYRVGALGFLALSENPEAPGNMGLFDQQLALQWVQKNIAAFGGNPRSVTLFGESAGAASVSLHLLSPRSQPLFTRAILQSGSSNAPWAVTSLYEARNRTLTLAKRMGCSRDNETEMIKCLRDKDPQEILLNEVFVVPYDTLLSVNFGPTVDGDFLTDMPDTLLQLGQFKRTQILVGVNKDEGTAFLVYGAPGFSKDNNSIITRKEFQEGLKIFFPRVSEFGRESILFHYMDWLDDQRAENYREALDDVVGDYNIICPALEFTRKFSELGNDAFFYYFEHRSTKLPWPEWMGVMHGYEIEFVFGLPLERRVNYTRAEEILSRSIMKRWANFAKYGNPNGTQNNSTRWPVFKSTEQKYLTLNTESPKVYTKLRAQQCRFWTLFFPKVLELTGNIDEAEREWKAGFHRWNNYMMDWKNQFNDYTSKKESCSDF
In series [2] the target is T2, 72 kDa type IV collagenase (Homo sapiens, UniProt P08253). The experiment in a line: Inhibition of human MMP2 using Mca-Pro-Leu-Gly-Leu-Dpa-Ala-Arg-NH as substrate preincubated for 60 mins followed by substrate addition by fluorescence analysis.
T2 sequence (P08253 whole entry): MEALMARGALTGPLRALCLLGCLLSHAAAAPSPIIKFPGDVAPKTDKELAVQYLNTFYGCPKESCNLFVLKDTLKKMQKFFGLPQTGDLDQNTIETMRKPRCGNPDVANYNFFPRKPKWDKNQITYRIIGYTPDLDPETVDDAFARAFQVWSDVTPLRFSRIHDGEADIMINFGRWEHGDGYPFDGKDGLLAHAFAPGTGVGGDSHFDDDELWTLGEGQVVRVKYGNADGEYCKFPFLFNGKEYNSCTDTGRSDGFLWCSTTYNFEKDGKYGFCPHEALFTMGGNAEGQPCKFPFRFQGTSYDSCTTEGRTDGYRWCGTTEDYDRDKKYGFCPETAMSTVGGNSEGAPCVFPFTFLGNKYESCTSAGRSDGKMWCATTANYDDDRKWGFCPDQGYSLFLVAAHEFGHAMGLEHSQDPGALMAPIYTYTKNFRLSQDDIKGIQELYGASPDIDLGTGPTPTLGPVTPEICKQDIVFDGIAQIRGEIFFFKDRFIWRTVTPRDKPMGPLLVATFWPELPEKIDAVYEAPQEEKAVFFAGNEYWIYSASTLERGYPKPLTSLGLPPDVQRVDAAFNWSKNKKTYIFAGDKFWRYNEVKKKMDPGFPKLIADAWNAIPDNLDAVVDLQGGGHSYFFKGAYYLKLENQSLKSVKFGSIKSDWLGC
The nature of series [3]: Permeability of the compound at 25 ug/ml after 18 hrs by PAMPA-BBB assay. The format is ADME. Particulars: read-out: permeability.
The subject of the next series is Mus musculus. Kind of series: Effect on locomotive behavior in Swiss albino mouse at 5 to 20 mg/kg, ip administered once daily for 7 days prior to 4 hrs of training and measured after 5 mins by Y-maze test. It counts as ADME, organism-based. To be noted: in vivo.
Series [4] can be described thus: Toxicity in Wistar rat measured for 72 hrs. The format is organism-based. Particulars: in vivo.
Another series relates to Rattus norvegicus. The experiment in a line: Toxicity in Wistar rat assessed as mortality at 300 mg/kg measured for 72 hrs. To be noted: in vivo. It counts as organism-based.
Series [5] deals with T1, Acetylcholinesterase. The experiment in a line: Non-competitive inhibition of electric eel AChE using acetylthiocholine iodide as substrate preincubated for 30 mins followed by substrate addition by Dixon plot analysis.
Series [6] deals with T2, 72 kDa type IV collagenase. The experiment in a line: Competitive inhibition of human MMP2 using Mca-Pro-Leu-Gly-Leu-Dpa-Ala-Arg-NH as substrate preincubated for 60 mins followed by substrate addition by secondary plot analysis.
Series [7] can be described thus: Neuroprotective activity against tetracycline removal-induced cytotoxicity in human MC65 cells assessed as cell viability at 70 uM after 12 hrs by MTT assay relative to control. It counts as functional. Particulars: MC65, 12 h, read-out: Activity.

T1 sequence (O42275 whole entry): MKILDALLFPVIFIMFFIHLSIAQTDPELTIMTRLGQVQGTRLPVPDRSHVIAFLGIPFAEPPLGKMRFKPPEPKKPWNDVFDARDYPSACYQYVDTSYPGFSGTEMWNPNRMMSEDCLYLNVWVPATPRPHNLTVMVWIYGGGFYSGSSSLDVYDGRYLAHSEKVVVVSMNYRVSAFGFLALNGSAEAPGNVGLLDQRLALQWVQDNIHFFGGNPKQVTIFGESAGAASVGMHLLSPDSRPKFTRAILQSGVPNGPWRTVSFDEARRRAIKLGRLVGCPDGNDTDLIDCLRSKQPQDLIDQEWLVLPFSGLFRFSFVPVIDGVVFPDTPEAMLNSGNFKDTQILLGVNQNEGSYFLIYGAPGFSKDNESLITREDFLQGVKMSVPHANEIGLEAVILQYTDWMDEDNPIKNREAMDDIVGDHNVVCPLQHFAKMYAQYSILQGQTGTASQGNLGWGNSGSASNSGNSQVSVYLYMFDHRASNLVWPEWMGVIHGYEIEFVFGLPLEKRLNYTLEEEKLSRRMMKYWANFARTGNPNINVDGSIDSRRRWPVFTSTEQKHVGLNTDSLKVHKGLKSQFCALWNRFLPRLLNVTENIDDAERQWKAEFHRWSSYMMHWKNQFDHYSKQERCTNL

For the compound `Nc1ccc(S(=O)(=O)N2CC(=O)N(S(=O)(=O)c3ccc(N)cc3)CC2=O)cc1`, the half-inhibitory concentration (IC50) on Acetylcholinesterase [1] is 0.0863 µM; against Cholinesterase, above 0.2 µM; in series [2] it was 0.0531 µM. Besides, the Papp at 18 h, 25 ug/ml in series [3] stood at 6.1 ×10⁻⁶ cm/s.

As for `O=C1C(c2ccccc2)N(S(=O)(=O)c2ccc(Br)cc2)C(=O)C(c2ccccc2)N1S(=O)(=O)c1ccc(Br)cc1` (centres undefined), the half-maximal inhibitory concentration (IC50) against Acetylcholinesterase [1] was 0.0506 µM; at Cholinesterase, 0.183 µM; in series [2], 0.0327 µM. Further, in series [3], the Papp at 18 h, 25 ug/ml came to 8.31 ×10⁻⁶ cm/s.

Turning to `O=C1C(Cc2ccccc2)N(S(=O)(=O)c2ccc(Cl)cc2)C(=O)C(Cc2ccccc2)N1S(=O)(=O)c1ccc(Cl)cc1` (centres undefined), the IC50 at Acetylcholinesterase [1] is 0.0325 µM; against Cholinesterase it was 0.158 µM; in [2] it was 0.0368 µM. Moreover, in series [3], the Papp at 18 h, 25 ug/ml came to 12.3 ×10⁻⁶ cm/s. The Activity entry in the series with Mus musculus is recorded as “Non-Toxic”; in the series with Rattus norvegicus it was “Toxic”. Besides, the LD50 at 72 h in series [4] amounted to 200 mg/kg.

For the compound `Cc1ccc(S(=O)(=O)N2C(=O)C(c3ccccc3)N(S(=O)(=O)c3ccc(C)cc3)C(=O)C2c2ccccc2)cc1` (centres undefined), the results for the IC50 (against Acetylcholinesterase [1]; against Cholinesterase; in series [2]) were 0.0764 µM, above 0.2 µM and 0.0629 µM, respectively. The Papp at 18 h, 25 ug/ml in series [3] was 11.3 ×10⁻⁶ cm/s.

`CCCS(=O)(=O)N1CC(=O)N(S(=O)(=O)CCC)CC1=O`: the IC50 against Acetylcholinesterase [1] was above 0.2 µM; at Cholinesterase it was above 0.2 µM; in series [2], above 1 µM. For the same compound, in [3], the Papp at 18 h, 25 ug/ml was determined as 0.89 ×10⁻⁶ cm/s.

With `COc1ccc(S(=O)(=O)N2CC(=O)N(S(=O)(=O)c3ccc(OC)cc3)CC2=O)cc1`, the IC50 on Acetylcholinesterase [1] is 0.0915 µM; on Cholinesterase, above 0.2 µM; in [2], 0.0753 µM. Also, the Papp at 18 h, 25 ug/ml in series [3] was 6.46 ×10⁻⁶ cm/s.

As for `NCCc1ccc(O)c(O)c1` [DOPAMINE], the Papp at 18 h, 25 ug/ml in series [3] was 0.17 to 0.2 ×10⁻⁶ cm/s.

As to `O=C1C(c2ccccc2)N(S(=O)(=O)c2ccc(Cl)cc2)C(=O)C(c2ccccc2)N1S(=O)(=O)c1ccc(Cl)cc1` (centres undefined), the half-inhibitory concentration (IC50) worked out at 0.0286 µM against Acetylcholinesterase [1], 0.161 µM against Cholinesterase and 0.0196 µM in series [2]. Further, the Ki worked out at 0.007 µM at Acetylcholinesterase [5] and 0.02 µM in series [6]. Besides, the Papp at 18 h, 25 ug/ml in [3] turned out to be 7.38 ×10⁻⁶ cm/s. Moreover, the viability at 70 µM in [7] came out at 99.4%. The Activity result with Mus musculus was “Non-Toxic”; with Rattus norvegicus, “Toxic”. The compound also registered an LD50 at 72 h in [4] of 200 mg/kg.

With `O=C1C(Cc2ccccc2)N(S(=O)(=O)c2cccc(Br)c2)C(=O)C(Cc2ccccc2)N1S(=O)(=O)c1cccc(Br)c1` (centres undefined), the figures for the half-inhibitory concentration (IC50) (against Acetylcholinesterase [1]; against Cholinesterase; in series [2]) were 0.0767 µM, 0.191 µM and 0.0581 µM, respectively. In addition, the Papp at 18 h, 25 ug/ml in [3] turned out to be 8.06 ×10⁻⁶ cm/s.

In the case of `O=C1C(Cc2ccccc2)N(S(=O)(=O)c2ccc(O)cc2)C(=O)C(Cc2ccccc2)N1S(=O)(=O)c1ccc(O)cc1` (centres undefined), the half-maximal inhibitory concentration (IC50) is 0.0595 µM against Acetylcholinesterase [1], 0.199 µM against Cholinesterase and 0.072 µM in [2]. Also, the Papp at 18 h, 25 ug/ml in [3] was 5.68 ×10⁻⁶ cm/s.

Regarding `O=C1CN(S(=O)(=O)c2cccc(Cl)c2)C(=O)CN1S(=O)(=O)c1cccc(Cl)c1`, the IC50 on Acetylcholinesterase [1] came out at 0.0667 µM; against Cholinesterase, 0.197 µM; in series [2], 0.058 µM. Further, the Papp at 18 h, 25 ug/ml in series [3] came out at 8.37 ×10⁻⁶ cm/s.

`CN(C)CCCN1c2ccccc2Sc2ccc(Cl)cc21` [CHLORPROMAZINE]: the Papp at 18 h, 25 ug/ml in series [3] is 5.9 to 6.5 ×10⁻⁶ cm/s.

On to `Cc1ccc(S(=O)(=O)N2CC(=O)N(S(=O)(=O)c3ccc(C)cc3)CC2=O)cc1`, for which the half-maximal inhibitory concentration (IC50) against Acetylcholinesterase [1] was 0.118 µM; at Cholinesterase, above 0.2 µM; in [2] it was 0.0867 µM. In addition, the Papp at 18 h, 25 ug/ml in series [3] stood at 10.4 ×10⁻⁶ cm/s.

Regarding `O=C1C(Cc2ccccc2)N(S(=O)(=O)c2ccc(Br)cc2)C(=O)C(Cc2ccccc2)N1S(=O)(=O)c1ccc(Br)cc1` (centres undefined), the IC50 was determined as 0.057 µM at Acetylcholinesterase [1], 0.181 µM at Cholinesterase and 0.0387 µM in series [2]. For the same compound, the Papp at 18 h, 25 ug/ml in [3] is 7.29 ×10⁻⁶ cm/s.

With `Cc1cccc(S(=O)(=O)N2C(=O)C(c3ccccc3)N(S(=O)(=O)c3cccc(C)c3)C(=O)C2c2ccccc2)c1` (centres undefined), the figures for the 50% inhibitory concentration (IC50) (on Acetylcholinesterase [1]; against Cholinesterase; in series [2]) were 0.0839 µM, above 0.2 µM and 0.0738 µM, respectively. Moreover, the Papp at 18 h, 25 ug/ml in series [3] came out at 11.8 ×10⁻⁶ cm/s.

For `O=C1C(c2ccccc2)N(S(=O)(=O)c2cccc(Br)c2)C(=O)C(c2ccccc2)N1S(=O)(=O)c1cccc(Br)c1` (centres undefined), the half-maximal inhibitory concentration (IC50) was determined as 0.0766 µM against Acetylcholinesterase [1], 0.193 µM on Cholinesterase and 0.0547 µM in series [2]. For the same compound, the Papp at 18 h, 25 ug/ml in series [3] worked out at 9.45 ×10⁻⁶ cm/s.

In the case of `O=C1C(c2ccccc2)N(S(=O)(=O)c2ccc([N+](=O)[O-])cc2)C(=O)C(c2ccccc2)N1S(=O)(=O)c1ccc([N+](=O)[O-])cc1` (centres undefined), the 50% inhibitory concentration (IC50) came out at 0.0608 µM against Acetylcholinesterase [1], 0.176 µM against Cholinesterase and 0.0335 µM in series [2]. Besides, the Papp at 18 h, 25 ug/ml in [3] stood at 4.63 ×10⁻⁶ cm/s.

On to `O=C1CN(S(=O)(=O)c2ccc(Cl)cc2)C(=O)CN1S(=O)(=O)c1ccc(Cl)cc1`, for which the IC50 against Acetylcholinesterase [1] was 0.0616 µM; at Cholinesterase it was 0.18 µM; in series [2], 0.0497 µM. In series [3], the Papp at 18 h, 25 ug/ml was 6.43 ×10⁻⁶ cm/s.

Consider `O=C1CN(S(=O)(=O)c2ccc(Br)cc2)C(=O)CN1S(=O)(=O)c1ccc(Br)cc1`, for which the IC50 turned out to be 0.0818 µM against Acetylcholinesterase [1], 0.191 µM on Cholinesterase and 0.0547 µM in series [2]. For the same compound, the Papp at 18 h, 25 ug/ml in series [3] turned out to be 8.87 ×10⁻⁶ cm/s.

`O=C1CN(S(=O)(=O)c2ccccc2)C(=O)CN1S(=O)(=O)c1ccccc1`: the IC50 on Acetylcholinesterase [1] was 0.0985 µM; against Cholinesterase, above 0.2 µM; in [2], 0.0822 µM.

In the case of `CCn1cc(C(=O)O)c(=O)c2cc(F)c(N3CCNC(C)C3)c(F)c21` (centres undefined) [LOMEFLOXACIN], the Papp at 18 h, 25 ug/ml in series [3] lay within 0.31 to 1.1 ×10⁻⁶ cm/s.

For `O=C1C(Cc2ccccc2)N(S(=O)(=O)c2cccc(O)c2)C(=O)C(Cc2ccccc2)N1S(=O)(=O)c1cccc(O)c1` (centres undefined), the IC50 at Acetylcholinesterase [1] was 0.0698 µM; against Cholinesterase, above 0.2 µM; in [2], 0.083 µM. Moreover, in [3], the Papp at 18 h, 25 ug/ml came out at 6.36 ×10⁻⁶ cm/s.

For the compound `O=C1C(c2ccccc2)N(S(=O)(=O)c2ccc(O)cc2)C(=O)C(c2ccccc2)N1S(=O)(=O)c1ccc(O)cc1` (centres undefined), the IC50 on Acetylcholinesterase [1] is 0.0843 µM; on Cholinesterase, above 0.2 µM; in series [2] it was 0.0572 µM. The Papp at 18 h, 25 ug/ml in [3] amounted to 6.84 ×10⁻⁶ cm/s.

As to `CC(=O)[C@H]1CC[C@H]2[C@@H]3CCC4=CC(=O)CC[C@]4(C)[C@H]3CC[C@]12C` [PROGESTERONE], the Papp at 18 h, 25 ug/ml in series [3] lay in the range of 9.3 to 15.8 ×10⁻⁶ cm/s.

With `Cc1nnc2n1-c1ccc(Cl)cc1C(c1ccccc1)=NC2` [ALPRAZOLAM], the Papp at 18 h, 25 ug/ml in series [3] was 4.6 to 5.4 ×10⁻⁶ cm/s.

Turning to `O=C1C(Cc2ccccc2)N(S(=O)(=O)c2ccc([N+](=O)[O-])cc2)C(=O)C(Cc2ccccc2)N1S(=O)(=O)c1ccc([N+](=O)[O-])cc1` (centres undefined), the results for the IC50 (at Acetylcholinesterase [1]; against Cholinesterase; in [2]) were 0.0574 µM, 0.163 µM and 0.0538 µM, respectively. Besides, the Papp at 18 h, 25 ug/ml in [3] came out at 4.49 ×10⁻⁶ cm/s.

With `CCCCS(=O)(=O)N1CC(=O)N(S(=O)(=O)CCCC)CC1=O`, the IC50 on Acetylcholinesterase [1] was above 0.2 µM; on Cholinesterase it was above 0.2 µM; in series [2], above 1 µM. In addition, the Papp at 18 h, 25 ug/ml in series [3] was determined as 1.06 ×10⁻⁶ cm/s.

Consider `Nc1ccc(S(=O)(=O)N2C(=O)C(c3ccccc3)N(S(=O)(=O)c3ccc(N)cc3)C(=O)C2c2ccccc2)cc1` (centres undefined), for which the 50% inhibitory concentration (IC50) at Acetylcholinesterase [1] was 0.0913 µM; against Cholinesterase, above 0.2 µM; in series [2], 0.0506 µM. The Papp at 18 h, 25 ug/ml in series [3] is 5.53 ×10⁻⁶ cm/s.

As for `O=C1CN(S(=O)(=O)c2ccc(F)cc2)C(=O)CN1S(=O)(=O)c1ccc(F)cc1`, the half-inhibitory concentration (IC50) against Acetylcholinesterase [1] was 0.0783 µM; at Cholinesterase it was 0.186 µM; in [2] it was 0.0551 µM. In addition, in [3], the Papp at 18 h, 25 ug/ml turned out to be 10.3 ×10⁻⁶ cm/s.
